Literature values in EP3733197A1, “ANAEROBIC ANTIOXIDANT COMPOSITION” (Pitcher, Stephen N., priority 2019, dated 2020).

Legend:
[1] = in vivo

- pregnancy risk (in vivo): category B
- half-life [1]: approximately 5.6 hours
- renally excreted by the body [1]: 30%
SMILES: CC(=O)N[C@@H](CS)C(=O)O [NAC, N-acetylcysteine]
- associated adverse effects (orally administered or inhaled): drowsiness, stomatitis, clamminess, rhinorrhea, and hemoptysis
